# Assay results taken from patent US6552038B1, “Anticoagulant agents” (Eli Lilly and Company, priority 1996, dated 2003).
# Counter-ions that a name gives are not always drawn.
# What was measured:
# human or animal plasma = assay: Anticoagulation determination: thrombin time (TT) in plasma; conditions: compound added to plasma; linear extrapolation to doubling of thrombin time
# Experimental: Dog plasma and rat plasma are obtained from conscious mixed-breed hounds (either sex, hazelton-LRE, Kalamazoo, Mich., U.S.A.) or from anesthetized male Sprague-Dawley rats (Harlan Sprague-Dawley, Inc., Indianapolis, Ind., U.S.A.) by venipuncture into 3.8 percent citrate. Fibrinogen is prepared from in-date ACD human blood as the fraction I-2 according to previous procedures and specifications. Smith, Biochem. J., 185, 1-11 (1980); and Smith, et al., Biochemistry, 11, 2958-2967 (1972). Human fibrinogen is also purchased as 98 percent pure/plasmin free from American Diagnostica, Greenwich, Conn. Coagulation reagents ACTIN, Thromboplastin, and Human plasma are from Baxter Healthcare Corp., Dade Division, Miami, Fla. Bovine thrombin from Parke-Davis (Detroit, Mich.) is used for coagulation assays in plasma.
# Coagulation assay procedures are as previously described. Smith, et al., Thrombosis Research, 50, 163-174 (1988). A CoAScreener coagulation instrument (American LABor, Inc.) is used for all coagulation assay measurements. The thrombin time (TT) is measured by adding 0.05 ml saline and 0.05 ml thrombin (10 NIH units/ml) to 0.05 ml test plasma. The activated partial thromboplastin time (APTT) is measured by incubation of 0.05 ml test plasma with 0.05 ml Actin reagent for 120 seconds followed by 0.05 ml CaCl2 (0.02 M). The prothrombin time (PT) is measured by adding 0.05 ml saline and 0.05 ml Thromboplastin-C reagent to 0.05 ml test plasma. The compounds of formula I are added to human or animal plasma over a wide range of concentrations to determine prolongation effects on the TT, APTT and PT assays. Linear extrapolations are performed to estimate the concentrations required to double the clotting time for each assay. Each of the particularly preferred examples of the invention listed above was determined to have a TT value of less than 50 ng/mL. For example, the respective values (in ng/mL) for TT were 6, 6 and 23 for the compounds of Examples 1, 3 and 5.
# [1] = Octanol/water distribution coefficient logD at pH 7.4; assay type: physicochemical
# human thrombin = human thrombin (Homo sapiens, UniProt P00734); assay: Inhibition of the amidase activity of thrombin (chromogenic substrate), Kass; assay type: biochemical; conditions: purified human thrombin, N-benzoyl-L-Phe-L-Val-L-Arg-p-nitroanilide, pH 7.4; mean value
# Experimental: The assay is carried out by mixing 50 μl buffer (0.03M Tris, 0.15M NaCl, pH 7.4) with 25 μl of human thrombin solution (purified human thrombin, Enzyme Research Laboratories, South Bend, Ind., at 8 NIH units/ml) and 25 μl of test compound in a solvent (50% aqueous methanol (v:v)). Then 150 μl of an aqueous solution of the chromogenic substate (at 0.25 mg/ml) are added and the rates of hydrolysis of the substrate are measured by monitoring the reactions at 405 nm for the release of p-nitroaniline. Standard curves are constructed by plotting free thrombin concentration against hydrolysis rate. The hydrolysis rates observed with test compounds are then converted to “free thrombin” values in the respective assays by use of the standard curves. The bound thrombin (bound to test compound) is calculated by subtracting the amount of free thrombin observed in each assay from the known initial amount of thrombin used in the assay. The amount of free inhibitor in each assay is calculated by subtracting the number of moles of bound thrombin from the number of moles of added inhibitor (test compound). […]
# Kass is calculated for a range of concentrations of test compounds and the mean value reported in units of liter per mole. […] For example, each of the particularly preferred examples of the invention listed above was determined to have a Kass of at least 100×10^6 L/mole.
SMILES,"TT value (concentration required to double the clotting time, thrombin time) (human or animal plasma) [ng/mL]",logD(7.4) [1],Kass (hypothetical equilibrium constant for the reaction between thrombin and the test compound) (human thrombin)
"N=C(N)c1ccc(CNC(=O)[C@@H]2CCCN2C(=O)[C@H](N)CC2CCCCC2)cc1O [Example 1, D-cyclohexylalanyl-N-[[4-(aminoiminomethyl)-3-hydroxyphenyl]methyl]-L-prolinamide dihydrochloride]",6,,
"CCS(=O)(=O)N[C@H](CC1CCCCC1)C(=O)N1CCC[C@H]1C(=O)NCc1ccc(C(=N)N)c(O)c1 [Example 5, N-ethylsulfonyl-D-cyclohexylalanyl-N-[[4-(aminoiminomethyl)-3-hydroxyphenyl]methyl]-L-prolinamide hydrochloride]",23,,
"Cl.N=C(N)c1ccc(CNC(=O)[C@@H]2CCCN2C(=O)[C@@H](CC2CCCCC2)NCC(=O)O)cc1O [Example 3, N-carboxymethyl-D-cyclohexylalanyl-N-[[4-(aminoiminomethyl)-3-hydroxyphenyl]methyl]-L-prolinamide hydrochloride]",6,0.55,"1,200×10^6 L/mole"
